Assay results from paper PMC8177068, “Secondary (iso)BAs cooperate with endogenous ligands to activate FXR under physiological and pathological conditions” (Biochimica et biophysica acta. Molecular basis of disease, 2021).

Legend:
intestinal Fgf15 = assay: BA-enriched diet in mice: intestinal FXR target gene expression; assay type: in vivo, mouse; details: C57BL/6 J mice, 0.5% (w/w) chow diet
Procedure: (§1) RNA was extracted from cells or snap-frozen tissue samples (approximately 50 mg) using Trizol according to the manufacturer’s instructions and as described previously in detail. Liver samples were homogenized before extraction in a MagNA Lyser at 6500 rpm for 2 × 20 s intervals. Concentration and quality (absorbance 260/280 & […] ratios) of RNA was measured on a NanoDrop™ 2000 spectrophotometer. Isolated RNA was reverse-transcribed by using the SuperScript II cDNA synthesis enzyme according to the manufacturer’s instructions. Primers used for RT-qPCR were designed using the open-source program Primer3. Primers were designed to span exon-intron boundaries with an amplicon size of less than 150 bp. Relative changes were calculated using a standard curve and 36b4 as the reference genes.
Fig. 6.

hepatic Cyp7a1 = assay: BA-enriched diet in mice: hepatic BA synthesis gene expression; assay type: in vivo, mouse; details: for Cyp7a1 levels in the liver: C57BL/6 J mice, 0.5% (w/w) chow diet
Procedure: as §1
(§2) All animals were housed with a 12-h light-dark cycle in humidity and temperature-controlled conditions and permitted ad libitum consumption of water and a standard mouse diet (Altromin 1324, Lage, Germany). All the experiments were approved by the European Directive 2010/63/EU and approved by the Austrian Federal Ministry of Education, Science and Research (Vienna, Austria; BMWFW-66.010/0124-V/3b/2018, BMWFW-66.010/0129-WF/V/3b/2016, and the Institutional Animal Care and Use Committees at Emory University and were in conformity with the Austrian/US animal law. The Ostα^−/−, Asbt^−/−, Ostα-Asbt DKO (double knockout) and Fxr^−/−mice were generated as previously described. Experiments were performed in 8–12 weeks-old mice. Mice were fed a chow diet (Altromin 1324, Lage, Germany); for BA supplementation experiments, male mice were fed 0.5% (w/w) diet of the indicated BA for the indicated time. CBDL was performed as described previously. Mice were euthanized by decapitation and tissues including liver and intestine were immediately dissected, weighed and frozen in liquid nitrogen for subsequent molecular analysis or preserved for histological analysis.
Fig. 6. Regulation of FXR target genes in vivo after treatment with unconjugated and conjugated bile acids.
Fig. 7.

[1] = test system: FXR target genes (Ostb, Kng1); assay: FXR target gene mRNA/pre-mRNA expression in HepG2 cells (qRT-PCR); assay type: cell-based, human; details: 6 h
Procedure: as §1
Fig. 1.

FXR target genes = assay: Single dose gavage of (iso)BAs followed by GW4064 in mice, FXR target genes; assay type: in vivo, mouse; details: 60 mg/kg BW followed by GW4064 30 mg/kg BW, 6 h
Excerpt: as §2
Fig. 5. […] Genes were analyzed 6 h after gavage; n = 3–4, values represent the mean ± SEM. *p < 0.05; #p < 0.01.
Supplementary Figure 5. […]
Genes were analyzed 6 hours after gavage; n=3-4, values […]

human ASBT = test system: human ASBT; design: method as in PMID 24328955; details: cited from earlier work
[2] = Metabolism of isoBAs in HepG2 cells (LC-MS); assay type: in vitro ADME, human; details: 4 h
Procedure: The protocol has been published in detail previously. Briefly, internal standards were added to cells in 12-well plates and cells were lysed in methanol. The debris was pelleted, the supernatant dried and dissolved in running buffer. BAs were separated by HPLC using a C18 reversed phase or pentafluorophenyl column prior to quantification by mass spectrometry.
Having established suitable analytical methods, we focused on the metabolism of isoBAs and their 3-alpha-epimers in vitro, using conditions similar to our cell-based FXR assays. […] This may indicate that the presence of the 12-hydroxy group prevents further metabolism into 3α-BAs. It was also observed that a very small amount of 3α-OH BAs were converted to 3-keto intermediates (Fig. 2B, C).
Fig. 2. IsoBAs are metabolized into (3-keto/oxo) derivatives and are partially re-epimerized into 3-alpha hydroxy BAs. HepG2 cells were incubated with (A) isoBAs or (B) their 3-alpha-epimers for 4 h. BAs were measured on C-18 column by LC/MS. Upper panel BAs and isoBAs; lower panel keto/oxo derivatives after incubation. Chromatograms of isoBA-standards are shown in Supplementary Fig. 3A. (C) Merged chromatograms of (A) & (B). […] (*) conversion of isoBAs into 3-alpha hydroxy BAs. (m/z) mass divided by charge number.

[3] = design: method as in PMID 9126801, PMID 11352980; details: pilot studies; cited from earlier work
[4] = molecular target: T1, FXR ligand binding domain (NucleoBAS) (Homo sapiens, UniProt Q96RI1); assay: Confocal FRET bile acid sensor (NucleoBAS) in U2OS cells; assay type: cell-based; details: NTCP-NucleoBAS cells in CFBS
T1 construct: nuclear localisation (sensor targeted to the nucleus; signal not described); expressed in transfected cells; host or cells: U2OS cells stably expressing NucleoBAS (PEI transfection, colony selection); some experiments with co-expressed NTCP-mKate2
T1 sequence (Q96RI1 262-486 limits assumed): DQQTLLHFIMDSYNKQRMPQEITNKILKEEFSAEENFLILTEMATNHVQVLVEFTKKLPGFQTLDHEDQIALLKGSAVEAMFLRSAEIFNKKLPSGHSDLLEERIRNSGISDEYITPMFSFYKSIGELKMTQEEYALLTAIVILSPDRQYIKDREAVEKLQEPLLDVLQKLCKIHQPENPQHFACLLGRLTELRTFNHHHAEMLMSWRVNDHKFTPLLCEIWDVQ
Excerpt: Fig. 3.
Fig. 4. […] Error bars represent the SEM.
(§3) (1 picture or pasted object on this page, not shown here)

Bsep = assay: Hepatic Bsep pre-mRNA and mRNA in animals treated with GSK2324; assay type: in vivo; details: animals treated with GSK2324, liver
Procedure: Supplementary Figure 2. (A) Hepatic expression of bile acid transport (Bsep) and BA-synthesis gene (Cyp7a1) pre-mRNA and mRNA after treatment with either vehicle or the synthetic FXR agonist GSK2324 for 30 minutes (n = 7-8), 1 hour (n = 8), or 2 hours (n = 7-8) before sacrifice; values represent the mean ± SEM. *p<0.05, #p<0.01. Effect of the synthetic FXR ligand (GW4064) and isoBAs (isoCDCA, isoDCA, isoUDCA) on mRNA (B) and pre-mRNA (C) levels of Ostb, Kng1, Shp in HepG2 cells treated over time; n=3. Values represent the mean ± SEM.
as §3

Which results are given for `C[C@H](CCC(=O)O)[C@H]1CC[C@H]2[C@@H]3[C@H](O)C[C@@H]4C[C@H](O)CC[C@]4(C)[C@H]3C[C@H](O)[C@]12C` [CA, cholic acid]?
Fgf15 and Ibabp expression in the intestine (intestinal Fgf15): increased; Cyp7a1 levels in the liver (hepatic Cyp7a1): repressed; induction of Ostβ and Kng1 pre-mRNAs [1]: not

With `C[C@H](CCC(=O)O)[C@H]1CC[C@H]2[C@@H]3[C@@H](O)C[C@@H]4C[C@@H](O)CC[C@]4(C)[C@H]3CC[C@]12C` [isoUDCA] as the compound, how does the “repression of Cyp7a1 in the liver compared to UDCA” value (FXR target genes) read?
The value was “even better”.

And the “affinity for human ASBT compared to native BAs” value (human ASBT)?
Its value is “identical binding affinities”.

And the “re-epimerization (conversion) into the 3α-stereoisomer” value (“re-epimerization” for short) [2]?
Its value is “observed”.

What about the “induction of Ostβ and Kng1 mRNA” value [1] of the same compound?
Its value is “barely induced”.

What about the “induction of Ostβ and Kng1 pre-mRNAs” value [1] of the same compound?
Its value is “not”.

And the tolerability [3]?
Its tolerability is “well tolerated without any side effects”.

With `C[C@H](CCC(=O)O)[C@H]1CC[C@H]2[C@@H]3CC[C@@H]4C[C@H](O)CC[C@]4(C)[C@H]3C[C@H](O)[C@]12C` [DCA, deoxycholic acid, reference compound] as the compound, how does the “induction of Ostβ and Kng1 pre-mRNAs” value [1] read?
Its value is “robustly induced”.

With `CC(CCC(=O)NCC(=O)O)C1CCC2C3C(O)CC4CC(O)CCC4(C)C3CCC12C` (centres unmarked) [GCDCA, glycochenodeoxycholic acid, reference compound] as the compound, how does the “change in FRET” value ([4]; 10 μM GCDCA) read?
The value was “markedly increased FRET”.

With `C[C@H](CCC(=O)O)[C@H]1CC[C@H]2[C@@H]3CC[C@@H]4C[C@H](O)CC[C@]4(C)[C@H]3CC[C@]12C` [LCA, lithocholic acid, reference compound] as the compound, how does the “induction of Ostβ and Kng1 pre-mRNAs” value [1] read?
The value was “not”.

With `C[C@H](CCC(=O)O)[C@H]1CC[C@H]2[C@@H]3[C@H](O)C[C@@H]4C[C@@H](O)CC[C@]4(C)[C@H]3C[C@H](O)[C@]12C` [isoCA] as the compound, how does the “re-epimerization” value [2] read?
The value was “did not observe re-epimerization”.

What about the “induction of Ostβ and Kng1 pre-mRNAs” value [1] of the same compound?
Its value is “not”.

What does the source list for `C[C@H](CCC(=O)O)[C@H]1CC[C@H]2[C@@H]3[C@@H](O)C[C@@H]4C[C@H](O)CC[C@]4(C)[C@H]3CC[C@]12C` [UDCA, ursodeoxycholic acid]?
Cyp7a1 levels in the liver (hepatic Cyp7a1): repressed; effect on liver Cyp7a1 mRNA expression (hepatic Cyp7a1; CBDL mice, 0.5% (w/w) diet 7 days): inhibited; repression of Cyp7a1 mRNA levels (hepatic Cyp7a1; CBDL-Fxr KO mice): not; repression of Cyp7a1 mRNA levels (hepatic Cyp7a1; CBDL-WT mice): repress; affinity for human ASBT compared to native BAs (human ASBT): identical binding affinities

Which “induction of Ostβ and Kng1 pre-mRNAs” value [1] does the source give for `C[C@H](CCC(=O)O)[C@H]1CC[C@H]2[C@@H]3CC[C@@H]4C[C@@H](O)CC[C@]4(C)[C@H]3CC[C@]12C` [isoLCA] here?
Its value is “not”.

With `C[C@H](CCC(=O)O)[C@H]1CC[C@H]2[C@@H]3CC[C@@H]4C[C@@H](O)CC[C@]4(C)[C@H]3C[C@H](O)[C@]12C` [isoDCA, (5β, 3β, 12α) -dihydroxy-cholan-24-oic acid] as the compound, how does the “change in FRET signal induced by GCDCA” value ([4]; 100 μM isoBA at t = 240 s after 10 μM GCDCA) read?
Its value is “reduced the FRET signal”.

What about the “re-epimerization” value [2] of the same compound?
The value was “did not observe re-epimerization”.

And the “induction of Ostβ and Kng1 mRNA” value [1]?
The value was “barely induced”.

What about the “induction of Ostβ and Kng1 pre-mRNAs” value [1] of the same compound?
Its value is “robustly induced”.

With `C[C@H](CCC(=O)NCCS(=O)(=O)O)[C@H]1CC[C@H]2[C@@H]3[C@@H](O)C[C@@H]4C[C@H](O)CC[C@]4(C)[C@H]3CC[C@]12C` [TUDCA, tauroursodeoxycholic] as the compound, how does the “expression of pre-mRNA over mRNA as compared to CA and TCA” value (intestinal Fgf15) read?
Its value is “more strongly enhanced”.

Which “Bsep pre-mRNA induction over the mature Bsep mRNA” value (Bsep) does the source give for `CC(C)c1onc(-c2c(Cl)cccc2Cl)c1COc1ccc(-c2ccc3nc(C(=O)O)ccc3c2)cc1` [GSK2324] here?
The value was ~ 20 fold.

For `C[C@H](CCC(=O)O)[C@H]1CC[C@H]2[C@@H]3[C@H](O)C[C@@H]4C[C@@H](O)CC[C@]4(C)[C@H]3CC[C@]12C` [isoCDCA], which “re-epimerization” value [2] is on record?
The value was “observed”.

And the “induction of Ostβ and Kng1 mRNA” value [1]?
Its value is “significant induction”.

And the “induction of Ostβ and Kng1 pre-mRNAs” value [1]?
The value was “robustly induced”.
